Key:
Format in all cases: in vivo
[1] = test system: blackgrass (Alopecurus myosuroides); assay: Test B postemergence; settings: for Blackgrass plant response rating: scale 0 to 100 (0 no effect, 100 complete control); for Plant response rating, Blackgrass: scale 0 to 100
In short: (§1)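 Under greenhouse conditions, seeded pots and young plants (1- to 4-leaf, 2 to 18 cm) were treated at the same time with test chemicals in a non-phytotoxic solvent mixture containing surfactant. Response was assessed visually after 13 to 15 days, from 0 (no effect) to 100 (complete control).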

[2] = test system: wild oat (Avena fatua); assay: Test B postemergence; settings: for Oat, Wild plant response rating: scale 0 to 100 (0 no effect, 100 complete control); for Plant response rating, Oat, Wild: scale 0 to 100
In short: as §1

[3] = test system: umbrella sedge (Cyperus difformis); assay: Test B flooded paddy test; settings: Flood, 1000 g ai/ha; scale 0 to 100
Method: (§2) At the same time, plants selected from these crop and weed species and also blackgrass (Alopecurus myosuroides) and wild oat (Avena fatua) were treated with postemergence applications of test chemicals formulated in the same manner. Plants ranged in height from 2 to 18 cm (1- to 4-leaf stage) for postemergence treatments. Plant species in the flooded paddy test consisted of rice (Oryza sativa), umbrella sedge (Cyperus difformis), duck salad (Heteranthera limosa) and barnyardgrass (Echinochloa crus-galli) grown to the 2-leaf stage for testing. Treated plants and controls were maintained in a greenhouse for 13 to 15 days, after which time all species were compared to controls and visually evaluated. Plant response ratings, summarized in Table B, are based on a scale of 0 to 100 where 0 is no effect and 100 is complete control. A dash (-) response means no test result.

[4] = test system: barnyardgrass (Echinochloa crus-galli); assay: Test B flooded paddy test; settings: Flood, 1000 g ai/ha; scale 0 (no effect) to 100 (complete control)
Method: as §2

[5] = test system: duck salad (Heteranthera limosa); assay: Test B flooded paddy test; settings: Flood, 1000 g ai/ha; scale 0 to 100
Method: as §2

[6] = test system: rice (Oryza sativa); assay: Test B flooded paddy test; settings: Flood, 1000 g ai/ha; scale 0 to 100
Method: as §2

[7] = test system: cocklebur (Xanthium strumarium); assay: Test B pre/postemergence
Description: (§3) Seeds selected from barnyardgrass (Echinochloa crus-galli), Surinam grass (Brachiaria decumbens), cocklebur (Xanthium strumarium), corn (Zea mays), crabgrass (Digitaria sanguinalis), giant foxtail (Setaria faberii), lambsquarters (Chenopodium album), morningglory (Ipomoea coccinea), pigweed (Amaranthus retroflexus), velvetleaf (Abutilon theophrasti), and wheat (Triticum aestivum) were planted and treated preemergence with test chemicals formulated in a non-phytotoxic solvent mixture which included a surfactant.
as §2

[8] = test system: barnyardgrass (Echinochloa crus-galli); assay: Test B pre/postemergence
Description: as §3, §2

[9] = test system: morningglory (Ipomoea coccinea); assay: Test B pre/postemergence
Description: as §3, §2

[10] = test system: lambsquarters (Chenopodium album); assay: Test B pre/postemergence
Description: as §3, §2

[11] = test system: velvetleaf (Abutilon theophrasti); assay: Test B pre/postemergence
Description: as §3, §2

[12] = test system: giant foxtail (Setaria faberii); assay: Test B pre/postemergence
Description: as §3, §2

[13] = test system: crabgrass (Digitaria sanguinalis); assay: Test B pre/postemergence
Description: as §3, §2

[14] = test system: corn (Zea mays); assay: Test B pre/postemergence
Description: as §3, §2

[15] = test system: wheat (Triticum aestivum); assay: Test B pre/postemergence
Description: as §3, §2

[16] = test system: Surinam grass (Brachiaria decumbens); assay: Test B pre/postemergence
Description: as §3, §2

[17] = test system: pigweed (Amaranthus retroflexus); assay: Test B pre/postemergence
Description: as §3, §2

[18] = Postemergence, 125 g ai/ha, scale 0 to 100 (0 no effect, 100 complete control)
[19] = Preemergence, 125 g ai/ha, scale 0 to 100 (0 no effect, 100 complete control)
[20] = Preemergence, 500 g ai/ha, scale 0 to 100 (0 no effect, 100 complete control)
[21] = Postemergence, 500 g ai/ha, scale 0 to 100
[22] = Postemergence, 62 g ai/ha, scale 0 to 100 (0 no effect, 100 complete control)
[23] = Postemergence, 250 g ai/ha, scale 0 to 100
[24] = Preemergence, 250 g ai/ha, scale 0 to 100 (0 no effect, 100 complete control)
[25] = Preemergence, 62 g ai/ha, scale 0 to 100, 0 no effect, 100 complete control

## CCOC(=O)Cc1nc(-c2ccc(Cl)cc2)nc(N)c1Br [Compound 41]
[1]; 125 g ai/ha
  Blackgrass plant response rating: 20
[1]; 500 g ai/ha
  Plant response rating, Blackgrass: 60
[2]; 125 g ai/ha
  Oat, Wild plant response rating: 0
[2]; 500 g ai/ha
  Plant response rating, Oat, Wild: 0
[3]
  Plant response rating, Sedge, Umbrella: 80
[4]
  Plant response rating, Barnyardgrass: 0
[5]
  Plant response rating, Ducksalad: 90
[6]
  Plant response rating, Rice: 0
[7]; [18]
  Cocklebur plant response rating: 70
[7]; [19]
  Plant response rating, Cocklebur: 0
[7]; [20]
  Cocklebur plant response rating: 10
[8]; [18]
  Barnyardgrass plant response rating: 20
[8]; [21]
  Plant response rating, Barnyardgrass: 70
[8]; [19]
  Plant response rating, Barnyardgrass: 0
[8]; [20]
  Barnyardgrass plant response rating: 10
[9]; [18]
  Morningglory plant response rating: 70
[9]; [21]
  Plant response rating, Morningglory: 90
[9]; [19]
  Plant response rating, Morningglory: 0
[9]; [20]
  Morningglory plant response rating: 20
[10]; [18]
  Lambsquarters plant response rating: 80
[10]; [21]
  Plant response rating, Lambsquarters: 90
[10]; [19]
  Plant response rating, Lambsquarters: 30
[10]; [20]
  Lambsquarters plant response rating: 60
[11]; [18]
  Velvetleaf plant response rating: 50
[11]; [21]
  Plant response rating, Velvetleaf: 70
[11]; [19]
  Plant response rating, Velvetleaf: 10
[11]; [20]
  Velvetleaf plant response rating: 30
[12]; [18]
  Foxtail, Giant plant response rating: 20
[12]; [21]
  Plant response rating, Foxtail, Giant: 30
[12]; [19]
  Plant response rating, Foxtail, Giant: 0
[12]; [20]
  Foxtail, Giant plant response rating: 0
[13]; [18]
  Crabgrass plant response rating: 10
[13]; [21]
  Plant response rating, Crabgrass: 20
[13]; [19]
  Plant response rating, Crabgrass: 0
[13]; [20]
  Crabgrass plant response rating: 20
[14]; [18]
  Corn plant response rating: 20
[14]; [21]
  Plant response rating, Corn: 80
[14]; [19]
  Plant response rating, Corn: 0
[14]; [20]
  Corn plant response rating: 0
[15]; [18]
  Wheat plant response rating: 30
[15]; [21]
  Plant response rating, Wheat: 40
[15]; [19]
  Plant response rating, Wheat: 0
[15]; [20]
  Plant response rating, Wheat: 20
[16]; [18]
  Surinam Grass plant response rating: 0
[16]; [21]
  Plant response rating, Surinam Grass: 10
[16]; [20]
  Surinam Grass plant response rating: 0
[17]; [18]
  Pigweed plant response rating: 70
[17]; [21]
  Plant response rating, Pigweed: 90
[17]; [19]
  Plant response rating, Pigweed: 0
[17]; [20]
  Pigweed plant response rating: 60

## CCOC(OCC)c1nc(C2CC2)nc(N)c1Br [Compound 45]
[1]; 62 g ai/ha
  Blackgrass plant response rating: 0
[1]; 250 g ai/ha
  Plant response rating, Blackgrass: 0
[2]; 62 g ai/ha
  Oat, Wild plant response rating: 0
[2]; 250 g ai/ha
  Plant response rating, Oat, Wild: 0
[3]
  Plant response rating, Sedge, Umbrella: 0
[4]
  Plant response rating, Barnyardgrass: 0
[5]
  Plant response rating, Ducksalad: 0
[6]
  Plant response rating, Rice: 0
[7]; [22]
  Cocklebur plant response rating: 0
[7]; [23]
  Plant response rating, Cocklebur: 10
[7]; [24]
  Plant response rating, Cocklebur: 0
[8]; [22]
  Barnyardgrass plant response rating: 0
[8]; [23]
  Plant response rating, Barnyardgrass: 0
[8]; [25]
  Plant response rating, Barnyardgrass: 0
[8]; [24]
  Plant response rating, Barnyardgrass: 0
[9]; [22]
  Morningglory plant response rating: 40
[9]; [23]
  Plant response rating, Morningglory: 60
[9]; [25]
  Plant response rating, Morningglory: 30
[9]; [24]
  Plant response rating, Morningglory: 50
[10]; [22]
  Lambsquarters plant response rating: 10
[10]; [23]
  Plant response rating, Lambsquarters: 30
[10]; [25]
  Plant response rating, Lambsquarters: 0
[10]; [24]
  Plant response rating, Lambsquarters: 30
[11]; [22]
  Velvetleaf plant response rating: 0
[11]; [23]
  Plant response rating, Velvetleaf: 20
[11]; [25]
  Plant response rating, Velvetleaf: 0
[11]; [24]
  Plant response rating, Velvetleaf: 0
[12]; [22]
  Foxtail, Giant plant response rating: 0
[12]; [23]
  Plant response rating, Foxtail, Giant: 0
[12]; [25]
  Plant response rating, Foxtail, Giant: 0
[12]; [24]
  Plant response rating, Foxtail, Giant: 0
[13]; [22]
  Crabgrass plant response rating: 0
[13]; [23]
  Plant response rating, Crabgrass: 20
[13]; [25]
  Plant response rating, Crabgrass: 0
[13]; [24]
  Plant response rating, Crabgrass: 0
[14]; [22]
  Corn plant response rating: 0
[14]; [23]
  Plant response rating, Corn: 0
[14]; [25]
  Plant response rating, Corn: 0
[15]; [22]
  Wheat plant response rating: 0
[15]; [23]
  Plant response rating, Wheat: 0
[15]; [25]
  Plant response rating, Wheat: 0
[15]; [24]
  Plant response rating, Wheat: 0
[16]; [22]
  Surinam Grass plant response rating: 0
[16]; [23]
  Plant response rating, Surinam Grass: 0
[16]; [25]
  Plant response rating, Surinam Grass: 0
[16]; [24]
  Plant response rating, Surinam Grass: 0
[17]; [22]
  Pigweed plant response rating: 30
[17]; [23]
  Plant response rating, Pigweed: 50
[17]; [25]
  Plant response rating, Pigweed: 0
[17]; [24]
  Plant response rating, Pigweed: 50

## COC(OC)c1nc(C2CC2)nc(N)c1F [Compound 46]
[1]; 125 g ai/ha
  Blackgrass plant response rating: 0
[1]; 500 g ai/ha
  Plant response rating, Blackgrass: 10
[2]; 125 g ai/ha
  Oat, Wild plant response rating: 0
[2]; 500 g ai/ha
  Plant response rating, Oat, Wild: 0
[3]
  Plant response rating, Sedge, Umbrella: 30
[4]
  Plant response rating, Barnyardgrass: 0
[5]
  Plant response rating, Ducksalad: 60
[6]
  Plant response rating, Rice: 0
[7]; [18]
  Cocklebur plant response rating: 0
[7]; [21]
  Plant response rating, Cocklebur: 0
[7]; [19]
  Plant response rating, Cocklebur: 0
[7]; [20]
  Cocklebur plant response rating: 40
[8]; [18]
  Barnyardgrass plant response rating: 0
[8]; [21]
  Plant response rating, Barnyardgrass: 30
[8]; [19]
  Plant response rating, Barnyardgrass: 0
[8]; [20]
  Barnyardgrass plant response rating: 0
[9]; [18]
  Morningglory plant response rating: 80
[9]; [21]
  Plant response rating, Morningglory: 90
[9]; [19]
  Plant response rating, Morningglory: 50
[9]; [20]
  Morningglory plant response rating: 90
[10]; [18]
  Lambsquarters plant response rating: 10
[10]; [21]
  Plant response rating, Lambsquarters: 30
[10]; [19]
  Plant response rating, Lambsquarters: 10
[10]; [20]
  Lambsquarters plant response rating: 60
[11]; [18]
  Velvetleaf plant response rating: 0
[11]; [21]
  Plant response rating, Velvetleaf: 0
[11]; [19]
  Plant response rating, Velvetleaf: 0
[11]; [20]
  Velvetleaf plant response rating: 20
[12]; [18]
  Foxtail, Giant plant response rating: 0
[12]; [21]
  Plant response rating, Foxtail, Giant: 10
[12]; [19]
  Plant response rating, Foxtail, Giant: 0
[12]; [20]
  Foxtail, Giant plant response rating: 50
[13]; [18]
  Crabgrass plant response rating: 10
[13]; [21]
  Plant response rating, Crabgrass: 30
[13]; [19]
  Plant response rating, Crabgrass: 0
[13]; [20]
  Crabgrass plant response rating: 40
[14]; [18]
  Corn plant response rating: 0
[14]; [21]
  Plant response rating, Corn: 0
[14]; [19]
  Plant response rating, Corn: 0
[14]; [20]
  Corn plant response rating: 0
[15]; [18]
  Wheat plant response rating: 0
[15]; [21]
  Plant response rating, Wheat: 0
[15]; [19]
  Plant response rating, Wheat: 0
[15]; [20]
  Plant response rating, Wheat: 20
[16]; [18]
  Surinam Grass plant response rating: 0
[16]; [21]
  Plant response rating, Surinam Grass: 10
[16]; [19]
  Plant response rating, Surinam Grass: 0
[16]; [20]
  Surinam Grass plant response rating: 40
[17]; [18]
  Pigweed plant response rating: 70
[17]; [21]
  Plant response rating, Pigweed: 80
[17]; [19]
  Plant response rating, Pigweed: 80
[17]; [20]
  Pigweed plant response rating: 90
